Measured values published in patent US9957268B2, “1H-pyrrolo[2,3,c]pyridin-7(6H)-ones and pyrazolo[3,4-c]pyridin-7(6H)-ones as inhibitors of BET proteins” (Incyte Corporation, priority 2014, dated 2018).

Tests used:
[1] = target: BRD4-BD1 (Homo sapiens (Human), UniProt O60885); experiment: BRD4 AlphaScreen assay (BRD4-BD1); format: binding; conditions: biotin-labeled tetra-acetylated histone H4 peptide
Experimental: (§1) BRD4-BD1 and BRD4-BD2 assays were conducted in white 384-well polystyrene plate in a final volume of 40 μL for BD1 and 60 μL for BD2. Inhibitors were first serially diluted in DMSO and added to the plate wells before the addition of other reaction components. The final concentration of DMSO in the assay was 1.25% (BD1) and 0.83% (BD2). The assays were carried out at room temperature in the assay buffer (50 mM Tris-HCl, pH 7.5, 0.01% Tween-20, 0.01% BSA, 5 mM DTT), containing 50 nM Biotin-labeled tetra-acetylated histone H4 peptide (H4Ac4) and BRD4-BD1 or BRD4-BD2 protein at concentration less than 1 nM. The incubation for 75 min. was followed by the addition of 20 μL of assay buffer supplemented with Streptavidin donor beads (PerkinElmer 6760002) and GSH Acceptor beads (PerkinElmer-AL109C) at final concentration 2-4 μg/mL under reduced light. After plate sealing, the plate was incubated in the dark at room temperature for 75 min. before reading on a PHERAstar FS plate reader (BMG Labtech). IC50 determination was performed by fitting the curve of percent control activity versus the log of the inhibitor concentration using the GraphPad Prism 5.0 software.

[2] = target: BRD4-BD2 (Homo sapiens (Human), UniProt O60885); experiment: BRD4 AlphaScreen assay (BRD4-BD2); format: binding; conditions: biotin-labeled tetra-acetylated histone H4 peptide
Experimental: as §1

| Structure (SMILES) | IC50 [1] [nM] | IC50 [2] [nM] |
| --- | --- | --- |
| COc1cc2c(c(-c3cn(C)c(=O)c4[nH]ccc34)c1)OC(c1ccccc1)C(=O)N2 (single isomer, unassigned) [Example 24B, 6-methoxy-8-(6-methyl-7-oxo-6,7-dihydro-1H-pyrrolo[2,3-c]pyridin-4-yl)-2-phenyl-2H-1,4-benzoxazin-3(4H)-one] | ≤ 100 | ≤ 100 |
| CC(C)C1Oc2c(cc(C#N)cc2-c2cn(C)c(=O)c3[nH]ccc23)NC1=O (stereo not shown) [Example 17, 2-isopropyl-8-(6-methyl-7-oxo-6,7-dihydro-1H-pyrrolo[2,3-c]pyridin-4-yl)-3-oxo-3,4-dihydro-2H-1,4-benzoxazine-6-carbonitrile] | 100 to 1000 | ≤ 100 |
| CC(=O)c1cc2c(c(-c3cn(C)c(=O)c4[nH]ccc34)c1)OC(C(C)C)C(=O)N2 (stereo not shown) [Example 49, 6-acetyl-2-isopropyl-8-(6-methyl-7-oxo-6,7-dihydro-1H-pyrrolo[2,3-c]pyridin-4-yl)-2H-1,4-benzoxazin-3(4H)-one] | ≤ 100 | ≤ 100 |
| COc1cc2c(c(-c3cn(C)c(=O)c4[nH]ncc34)c1)OC(C(C)C)C(=O)N2 (stereo not shown) [Example 26, 2-isopropyl-6-methoxy-8-(6-methyl-7-oxo-6,7-dihydro-1H-pyrazolo[3,4-c]pyridin-4-yl)-2H-1,4-benzoxazin-3(4H)-one] | ≤ 100 | ≤ 100 |
| COc1cc2c(c(-c3cn(C)c(=O)c4[nH]ccc34)c1)OC(C(C)C)C(=O)N2 (single isomer, unassigned) [Example 9A, 2-isopropyl-6-methoxy-8-(6-methyl-7-oxo-6,7-dihydro-1H-pyrrolo[2,3-c]pyridin-4-yl)-2H-1,4-benzoxazin-3(4H)-one] | ≤ 100 | ≤ 100 |
| Cn1cc(-c2cc(S(C)(=O)=O)cc3c2OC(c2ccccc2)C(=O)N3)c2cc[nH]c2c1=O (stereo not shown) [Example 46, 8-(6-methyl-7-oxo-6,7-dihydro-1H-pyrrolo[2,3-c]pyridin-4-yl)-6-(methylsulfonyl)-2-phenyl-2H-1,4-benzoxazin-3(4H)-one] | ≤ 100 | ≤ 100 |
| COc1cc(-c2cn(C)c(=O)c3[nH]ccc23)c2c(c1)N(Cc1ccncc1)C(=O)C(C(C)C)O2 (stereo not shown) [Example 15, 2-isopropyl-6-methoxy-8-(6-methyl-7-oxo-6,7-dihydro-1H-pyrrolo[2,3-c]pyridin-4-yl)-4-(pyridin-4-ylmethyl)-2H-1,4-benzoxazin-3(4H)-one] | ≤ 100 | ≤ 100 |
| CC(C)C1Oc2c(cc(S(C)(=O)=O)cc2-c2cn(C)c(=O)c3[nH]ccc23)NC1=O (stereo not shown) [Example 44, 2-isopropyl-8-(6-methyl-7-oxo-6,7-dihydro-1H-pyrrolo[2,3-c]pyridin-4-yl)-6-(methylsulfonyl)-2H-1,4-benzoxazin-3(4H)-one] | ≤ 100 | ≤ 100 |

Other lines, results leading:

| IC50 [1] [nM] | IC50 [2] [nM] | Structure (SMILES) |
| --- | --- | --- |
| ≤ 100 | ≤ 100 | CC(C)C1Oc2c(cc(C(N)=O)cc2-c2cn(C)c(=O)c3[nH]ccc23)NC1=O (stereo not shown) [Example 41, 2-isopropyl-8-(6-methyl-7-oxo-6,7-dihydro-1H-pyrrolo[2,3-c]pyridin-4-yl)-3-oxo-3,4-dihydro-2H-1,4-benzoxazine-6-carboxamide] |
| ≤ 100 | ≤ 100 | CC(C)C1Oc2c(-c3cn(C)c(=O)c4[nH]ccc34)cc(S(C)(=O)=O)cc2N(C)C1=O (single isomer, unassigned) [Example 47B, 2-isopropyl-4-methyl-8-(6-methyl-7-oxo-6,7-dihydro-1H-pyrrolo[2,3-c]pyridin-4-yl)-6-(methylsulfonyl)-2H-1,4-benzoxazin-3(4H)-one] |
| ≤ 100 | ≤ 100 | CC(=O)NCc1cc2c(c(-c3cn(C)c(=O)c4[nH]ccc34)c1)OC(C(C)C)C(=O)N2 (stereo not shown) [Example 40, N-{[2-isopropyl-8-(6-methyl-7-oxo-6,7-dihydro-1H-pyrrolo[2,3-c]pyridin-4-yl)-3-oxo-3,4-dihydro-2H-1,4-benzoxazin-6-yl]methyl}acetamide] |
| ≤ 100 | ≤ 100 | CN1C(=O)C2(CC2)Oc2c(-c3cn(C)c(=O)c4[nH]ccc34)cc(S(C)(=O)=O)cc21 [Example 63, 4-methyl-8-(6-methyl-7-oxo-6,7-dihydro-1H-pyrrolo[2,3-c]pyridin-4-yl)-6-(methylsulfonyl)spiro[1,4-benzoxazine-2,1′-cyclopropan]-3(4H)-one] |
| ≤ 100 | ≤ 100 | CC(C)[C@@H]1Nc2c(cc(S(C)(=O)=O)cc2-c2cn(C)c(=O)c3[nH]ccc23)NC1=O [Example 60, (3S)-3-isopropyl-5-(6-methyl-7-oxo-6,7-dihydro-1H-pyrrolo[2,3-c]pyridin-4-yl)-7-(methylsulfonyl)-3,4-dihydroquinoxalin-2(1H)-one] |
| ≤ 100 | ≤ 100 | COCc1cc2c(c(-c3cn(C)c(=O)c4[nH]ccc34)c1)OC(C(C)C)C(=O)N2 (stereo not shown) [Example 37, 2-isopropyl-6-(methoxymethyl)-8-(6-methyl-7-oxo-6,7-dihydro-1H-pyrrolo[2,3-c]pyridin-4-yl)-2H-1,4-benzoxazin-3(4H)-one] |
| ≤ 100 | ≤ 100 | CN1C(=O)C(C)(C)Oc2c(-c3cn(C)c(=O)c4[nH]ccc34)cc(S(C)(=O)=O)cc21 [Example 75, 2,2,4-trimethyl-8-(6-methyl-7-oxo-6,7-dihydro-1H-pyrrolo[2,3-c]pyridin-4-yl)-6-(methylsulfonyl)-2H-1,4-benzoxazin-3(4H)-one] |
| ≤ 100 | ≤ 100 | Cn1cc(-c2cc(S(C)(=O)=O)cc3c2NC(C)(C)C(=O)N3)c2cc[nH]c2c1=O [Example 58, 3,3-dimethyl-5-(6-methyl-7-oxo-6,7-dihydro-1H-pyrrolo[2,3-c]pyridin-4-yl)-7-(methylsulfonyl)-3,4-dihydroquinoxalin-2(1H)-one] |
| 100 to 1000 | ≤ 100 | CC(C)C1Oc2c(cc(CN)cc2-c2cn(C)c(=O)c3[nH]ccc23)NC1=O (stereo not shown) [Example 38, 6-(Aminomethyl)-2-isopropyl-8-(6-methyl-7-oxo-6,7-dihydro-1H-pyrrolo[2,3-c]pyridin-4-yl)-2H-1,4-benzoxazin-3(4H)-one] |
| ≤ 100 | ≤ 100 | CC(C)C1Oc2c(cc(C(=O)N3CCOCC3)cc2-c2cn(C)c(=O)c3[nH]ccc23)NC1=O (stereo not shown) [Example 33, 2-isopropyl-8-(6-methyl-7-oxo-6,7-dihydro-1H-pyrrolo[2,3-c]pyridin-4-yl)-6-(morpholin-4-ylcarbonyl)-2H-1,4-benzoxazin-3(4H)-one] |
| ≤ 100 | ≤ 100 | CC(O)c1cc(-c2cn(C)c(=O)c3[nH]ccc23)c2c(c1)N(C)C(=O)C(C)(C)O2 (single isomer, unassigned) [Example 83B, 6-(1-hydroxyethyl)-2,2,4-trimethyl-8-(6-methyl-7-oxo-6,7-dihydro-1H-pyrrolo[2,3-c]pyridin-4-yl)-2H-1,4-benzoxazin-3(4H)-one] |
